Test results taken from article PMC4907212, “Mucosal and blood-brain barrier transport kinetics of the plant N-alkylamide spilanthol using in vitro and in vivo models” (BMC Complementary and Alternative Medicine, 2016).
Read-outs that look alike come from different tables or passages of the source.

Experiments:
[1] = parameters: method as in PMID 20227845, PMID 19808085, PMID 23583736; conditions: porcine buccal mucosa; cited from earlier work
[2] = Caco-2 cell permeability assay (Transwell, ab and ba direction); assay type: in vitro ADME, human; conditions: human; for Papp A→B at 120 min, 10 μg/ml / Papp B→A at 120 min, 10 μg/ml: mean ± SD, n = 2; for Papp A→B at 120 min, 10 μg/ml: read-out: apparent permeability coefficient (Papp), apical-to-basolateral; for Papp B→A at 120 min, 10 μg/ml: read-out: apparent permeability coefficient (Papp), basolateral-to-apical; for efflux ratio at 120 min, 10 μg/ml: read-out: efflux ratio (Papp,ba/Papp,ab)
Protocol: (§1) Caco-2 cells, originating from a human colorectal carcinoma were maintained in Dulbecco's modified Eagle's medium (DMEM) at 95 % humidity and 37 °C in an atmosphere of 5 % CO2, supplemented with 10 % (V/V) fetal bovine serum, 2 mM L-glutamine and 1 % non-essential amino acids (100x), 100 U/ml penicillin and 100 μg/ml streptomycin (all from Invitrogen/GIBCO, Ghent, Belgium). The Caco-2 cell intestinal model was used as a model for the gut mucosa to investigate the permeation of spilanthol. Caco-2 cells were seeded at a density of 2.6 · 10^5 cells/cm^2 cells for each Transwell (Corning Costar, New York, USA) membrane insert filter (0.4 μm pore size, 12 mm filter diameter) and cultivated in the described supplemented DMEM, also containing 100 units/ml penicillin and 100 μg/ml streptomycin. The medium was changed every second day. The cells were allowed to grow and differentiate for 21-29 days until monolayers were formed. Intact membranes/integrity of the monolayers were checked via the measurement of transepithelial electrical resistance (TEER) of the monolayers using the Millicell-ERS system (Millipore Corp., Bedford, MA, USA) before and after transport experiments. The experiment was performed in duplicate for each dose solution. Transport experiments were carried out in the apical-to-basolateral (ab) direction and in the basolateral-to-apical (ba) direction in Hanks' Balanced Salt solution, according to Hubatsch et al.. Two dose solutions of purified spilanthol at 10 μg/ml were tested, differing in solvent: 0.5 % ethanol (further indicated as DS1) and 0.5 % of a mixture of vitamin E-TPGS (33.3 %), ethanol (11.1 %), PEG 400 (33.3 %) and PG (22.2 %) (further indicated as DS2) dissolved in HBSS. Final volumes of 0.4 ml apically and 1.2 ml basolaterally were used for 12-mm filter supports during the transport experiment. Samples were taken at 15, 30, 60, 90 and 120 min from the acceptor (= receiver) compartment (basolateral to apical transport: 100 μl; apical to basolateral transport: 300 μl) and were immediately replaced by fresh HBSS. […] Quantification of spilanthol was conducted using the UPLC-MS^2 method as described below. The apparent permeability coefficient (Papp in cm/s) of spilanthol was calculated from a non-sink equation. From Fick's first law: J = - […] is the diffusion coefficient, J is the flux or transfer rate along the donor-to-receptor side, x is the distance from the donor compartment and C(x) is the concentration in the barrier at the coordinate x in the barrier), the following differential equation is derived: dMr(t)/dt = Papp × […])], in which Mr is the amount of substance in the receiver chamber, Papp is the apparent permeability coefficient (a product of distribution coefficient with diffusion coefficient divided by the barrier thickness), A is the cross-sectional area of the barrier, Cd is the donor concentration and Cr is the receiver concentration. This differential equation is the basis to calculate Papp values of compounds requiring sink, as well as non-sink conditions with different initial conditions to solve this equation. […] Non-linear curve fitting by minimisation of the sum of squared residuals (SSR) was used to obtain the Papp. The efflux ratio is calculated as Papp,ba/Papp,ab, while the uptake ratio is calculated as Papp,ab/Papp,ba.

Caco-2 cell monolayer = assay: as above; assay type: in vitro ADME, human
Protocol: as §1

[3] = Serum elimination kinetics in the mice MTR model after intravenous injection; assay type: in vivo, ICR-CD-1 mice
blood-brain barrier = assay: Brain-to-blood transport after intracerebroventricular injection; assay type: in vivo, ICR-CD-1 mice; conditions: mice, ICV injection of 1 μl of 4 mg/ml dose solution
Protocol: (§2) To evaluate the efflux of spilanthol out of the brain, an in vivo method previously described was used. Briefly, after anesthetizing the ICR-CD-1 mice using a 40 % (w/V) urethane solution (3 g/kg), the skin of the skull was removed. Thereafter, a hole was made into the lateral ventricle using a 22 G needle marked with tape at 2 mm at the following coordinates: 1 mm lateral and 0.34 mm posterior to the bregma. 1 μl of the 4 mg/ml spilanthol dose solution as used for the blood-to-brain influx experiment was injected intracerebroventriculary (ICV) using a syringe pump (KDS100, KR analytical, Cheshire, UK) at a speed of 360 μl/h for 10 s. […] Prior to decapitation, blood was collected from the abdominal aorta. Serum was obtained by centrifuging the blood at 10 000 g during 15 min at 21 °C and brains were collected. The efflux brain half-life (t1/2,brain) (min) was calculated from the linear regression of the natural logarithm of the spilanthol concentration in brain (ng/g) versus time as follows: t1/2,brain = ln(2)/kout, where kout (min^−1) is defined as the efflux rate constant calculated as the negative value of the slope of the linear regression, applying first order kinetics.

[4] = as above; assay type: in vivo, ICR-CD-1 mice; conditions: female, ICR-CD-1, mouse, icv or intrathecal, 4 μg per mouse; mice, ICV injection, ln(2)/kout; read-out: efflux brain half-life t1/2,brain
Protocol: as §2

Question: Which results are given for `C/C=C/C=C\CC/C=C/C(=O)NCC(C)C` [spilanthol, deca-2E,6Z,8E-trienoic acid isobutylamide]?
Answer: permeability coefficient Kp,aq [1]: 3.14 ×10⁻⁶ cm/s; Papp A→B at 120 min, 10 μg/ml ([2]; Caco-2, DS1 (10 μg/ml purified spilanthol, 0.5 % ethanol in HBSS)): 84.2 ×10⁻⁶ cm/s; Papp B→A at 120 min, 10 μg/ml ([2]; Caco-2, DS1): 102 ×10⁻⁶ cm/s; efflux ratio at 120 min, 10 μg/ml ([2]; Caco-2, DS1): 1.21; Papp A→B at 120 min, 10 μg/ml ([2]; Caco-2, DS2 (10 μg/ml, 0.5 % vitamin E-TPGS/ethanol/PEG 400/PG mixture in HBSS)): 56.1 ×10⁻⁶ cm/s; Papp B→A at 120 min, 10 μg/ml ([2]; Caco-2, DS2): 52 ×10⁻⁶ cm/s; efflux ratio at 120 min, 10 μg/ml ([2]; Caco-2, DS2): 0.93; recovery at 120 min, 10 μg/ml ([2]; Caco-2, donor plus acceptor at last time point (120 min), read-out: mass balance, total recovery): 105 to 121%; uptake ratio (Papp,ab/Papp,ba) (Caco-2 cell monolayer; DS1): 0.82; amount of spilanthol permeated, apical-to-basolateral (Caco-2 cell monolayer; DS1, after 120 min): 3.20 µg; amount of spilanthol permeated, basolateral-to-apical (Caco-2 cell monolayer; DS1, after 120 min): 3.86 µg; percentage of applied spilanthol permeated, apical-to-basolateral (Caco-2 cell monolayer; DS1, after 120 min): 79.8%; percentage of applied spilanthol permeated, basolateral-to-apical (Caco-2 cell monolayer; DS1, after 120 min): 32.1%; uptake ratio (Papp,ab/Papp,ba) (Caco-2 cell monolayer; DS2): 1.08; amount of spilanthol permeated, apical-to-basolateral (Caco-2 cell monolayer; DS2, after 120 min): 2.47 µg; amount of spilanthol permeated, basolateral-to-apical (Caco-2 cell monolayer; DS2, after 120 min): 2.49 µg; percentage of applied spilanthol permeated, apical-to-basolateral (Caco-2 cell monolayer; DS2, after 120 min): 64.3%; percentage of applied spilanthol permeated, basolateral-to-apical (Caco-2 cell monolayer; DS2, after 120 min): 21.6%; percentage of applied DS permeated, apical-to-basolateral (absorptive direction) (Caco-2 cell monolayer; after 120 min, DS1 and DS2): 64–80%; difference in Papp values between apical-to-basolateral and basolateral-to-apical direction (Caco-2 cell monolayer; both dose solutions): less than 2 fold; half-life ([3]; female, ICR-CD-1, iv, 80 μg per mouse, mouse serum, i.v.): 3.16 min; k el ([3]; female, ICR-CD-1, iv, 80 μg per mouse, mouse serum, i.v., one compartmental model, read-out: elimination rate constant (converted)): 0.00367 s⁻¹; concentration of spilanthol at time zero in serum ([3]; mice, i.v. 20 μl of 4 mg/ml, one compartmental model): 3050 ng/mL; efflux transfer constant kout (blood-brain barrier): 0.11 min⁻¹; half-life [4]: 6.4 min
